The text below walks through data of patent US9796716B2, “Selective inhibitors of Tec and Src protein kinase families” (Pharmascience, Inc., priority 2012, dated 2017).

Assay [1] deals with Splenocytes (B cell proliferation stimulated with anti-IgM F(ab′)2). The assay can be described thus: Splenic Cell Proliferation Assay. It counts as cell-based. To be noted: Mus musculus, Splenocyte, 72 h, CD1 mouse splenocytes, 2.5 ug/ml anti-IgM F(ab′)2 for 72 h, Cell Titer-Glo; read-out: EC50 (nM), Inhibition of splenic cell proliferation. As for the experimental part:
Splenic Cell Proliferation Assay
Splenocytes were obtained from 6 week old male CD1 mice (Charles River Laboratories Inc.). Mouse spleens were manually disrupted in PBS and filtered using a 70 um cell strainer followed by ammonium chloride red blood cell lysis. Cells were washed, resuspended in Splenocyte Medium (HyClone RPMI supplemented with 10% heat-inactivated FBS, 0.5× non-essential amino acids, 10 mM HEPES, 50 uM beta mercaptoethanol) and incubated at 37° C., 5% CO2 for 2 h to remove adherent cells. Suspension cells were seeded in 96 well plates at 50,000 cells per well and incubated at 37° C., 5% CO2 for 1 h. Splenocytes were pre-treated in triplicate with 10,000 nM curves of Formula 1 compounds for 1 h, followed by stimulation of B cell proliferation with 2.5 ug/ml anti-IgM F(ab′)2 (Jackson ImmunoResearch) for 72 h. Cell proliferation was measured by Cell Titer-Glo Luminescent Assay (Promega). EC50 values (50% proliferation in the presence of compound as compared to vehicle treated controls) were calculated from dose response compound curves using GraphPad Prism Software.

Assay [2] deals with recombinant human full-length Bruton Agammaglobulinemia Tyrosine Kinase (Btk) (Homo sapiens (Human), UniProt Q06187). Put plainly: Btk Kinase Inhibition Assay (fluorescence polarization). It counts as biochemical. The settings on record: 10 μM ATP, 250 μM substrate, 60 minutes; Ki calculated from IC50 using the Cheng-Prusoff equation. As for the experimental part:
Kinase Binding Btk Kinase Inhibition Assay
Fluorescence polarization-based kinase assays were performed in 384 well-plate format using histidine tagged recombinant human full-length Bruton Agammaglobulinemia Tyrosine Kinase (Btk) and a modified protocol of the KinEASE™ FP Fluorescein Green Assay supplied from Millipore. Kinase reaction were performed at room temperature for 60 minutes in presence of 250 μM substrate, 10 μM ATP and variable test article concentrations. The reaction was stopped with EDTA/kinase detection reagents and the polarization measured on a Tecan 500 instrument. From the dose-response curve obtained, the IC50 was calculated using Graph Pad Prisms® using a non linear fit curve. The Km for ATP on each enzyme was experimentally determined and the Ki values calculated using the Cheng-Prusoff equation (see: Cheng Y, Prusoff W H. (1973) Relationship between the inhibition constant (K1) and the concentration of inhibitor which causes 50 percent inhibition (I50) of an enzymatic reaction”. Biochem Pharmacol 22 (23): 3099-108).

Chain of recombinant human full-length Bruton Agammaglobulinemia Tyrosine Kinase (Btk) (Q06187 whole entry): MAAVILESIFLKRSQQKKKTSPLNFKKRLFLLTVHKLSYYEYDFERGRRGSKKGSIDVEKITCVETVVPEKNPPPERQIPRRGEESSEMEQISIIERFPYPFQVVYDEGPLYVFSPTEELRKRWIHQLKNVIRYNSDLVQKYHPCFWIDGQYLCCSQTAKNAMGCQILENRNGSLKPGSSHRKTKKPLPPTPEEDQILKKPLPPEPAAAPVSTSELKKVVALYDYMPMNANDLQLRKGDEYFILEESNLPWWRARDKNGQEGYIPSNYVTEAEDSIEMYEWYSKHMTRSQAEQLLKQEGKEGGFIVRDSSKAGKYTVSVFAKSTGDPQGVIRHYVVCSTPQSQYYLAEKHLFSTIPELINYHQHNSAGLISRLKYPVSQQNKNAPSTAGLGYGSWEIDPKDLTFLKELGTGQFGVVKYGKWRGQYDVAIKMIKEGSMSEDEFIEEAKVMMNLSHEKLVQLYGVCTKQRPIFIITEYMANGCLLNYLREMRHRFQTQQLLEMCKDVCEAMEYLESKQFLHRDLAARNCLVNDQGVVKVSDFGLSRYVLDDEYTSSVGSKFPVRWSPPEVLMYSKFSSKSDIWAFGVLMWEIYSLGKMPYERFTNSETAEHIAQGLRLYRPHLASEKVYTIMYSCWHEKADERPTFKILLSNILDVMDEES

As to `Cn1cncc1COc1cccc(Oc2ccc(-c3nn(C4CCOCC4)c4ncnc(N)c34)cc2)c1` [Compound 48], the EC50 in assay [1] was less than 100 nM. In assay [2], the inhibition constant Ki is less than 100 nM.

For the compound `CC(C)(C)OC(=O)N1CCCC(n2nc(-c3ccc(Oc4cccc(OCc5cncs5)c4)cc3)c3c(N)ncnc32)C1` (stereo not drawn) [Compound 49], the EC50 in assay [1] is less than 100 nM. Moreover, the Ki in assay [2] is less than 100 nM.

With `Nc1ncnc2c1c(-c1ccc(Oc3cccc(OCc4cncs4)c3)cc1)nn2C1CCCNC1` (stereo not drawn) [Compound 51], the EC50 in assay [1] is less than 100 nM. The Ki in assay [2] was less than 100 nM.

Regarding `Cc1ncc(COc2cc(F)cc(Oc3ccc(-c4nn(CCN5CCOCC5)c5ncnc(N)c45)cc3)c2)s1` [Compound 52], the EC50 in assay [1] was less than 100 nM. In addition, the Ki in assay [2] is less than 100 nM.

Regarding `Nc1ncnc2c1c(-c1ccc(Oc3cccc(OCc4cncs4)c3)cc1)nn2CCCN1CCOCC1` [Compound 53], in assay [1], the EC50 is less than 100 nM. For the same compound, the inhibitory constant (Ki) in assay [2] is less than 100 nM.

As for `Cc1ncc(COc2cc(F)cc(Oc3ccc(-c4nn(CCCN5CCOCC5)c5ncnc(N)c45)cc3)c2)s1` [Compound 55], in assay [1], the EC50 was less than 100 nM. For the same compound, the Ki in assay [2] was less than 100 nM.

`Cc1ncc(COc2cc(F)cc(Oc3ccc(-c4nn(CCN5CCCC5)c5ncnc(N)c45)cc3)c2)s1` [Compound 57]: the EC50 in assay [1] lay within 100 to 1000 nM. Besides, the inhibition constant (Ki) in assay [2] is less than 100 nM.

In the case of `Cc1ncc(COc2cc(F)cc(Oc3ccc(-c4nn(C5CCOCC5)c5ncnc(N)c45)c(F)c3)c2)s1` [Compound 60], the EC50 in assay [1] was less than 100 nM. Further, in assay [2], the Ki was less than 100 nM.

For the compound `Cc1ncc(COc2cc(F)cc(Oc3ccc(-c4nn(C)c5ncnc(N)c45)cc3)c2)s1` [Compound 61], in assay [1], the EC50 fell in the range of 100 to 1000 nM. Further, in assay [2], the Ki was less than 100 nM.

With `Nc1ncnc2c1c(-c1ccc(Oc3cc(F)cc(OCc4ccccc4)c3)cc1)nn2C1CCOCC1` [Compound 63], the EC50 in assay [1] is less than 100 nM. Besides, the inhibitory constant (Ki) in assay [2] is less than 100 nM.

For `[2H]C([2H])(Oc1cc(F)cc(Oc2ccc(-c3nn(C4CCOCC4)c4ncnc(N)c34)cc2)c1)c1cnc(C)s1` [Compound 64], the EC50 in assay [1] is less than 100 nM. The Ki in assay [2] was less than 100 nM.

As to `Cc1ccc(COc2cc(F)cc(Oc3ccc(-c4nn(C5CCOCC5)c5ncnc(N)c45)cc3)c2)cn1` [Compound 65], in assay [1], the EC50 was less than 100 nM. Also, in assay [2], the inhibition constant (Ki) was less than 100 nM.

For the compound `Nc1ncnc2c1c(-c1ccc(Oc3cc(F)cc(CCc4ccccc4)c3)cc1)nn2C1CCOCC1` [Compound 66], the EC50 in assay [1] was in the range of 100 to 1000 nM. In assay [2], the inhibition constant (Ki) was less than 100 nM.

For `Cn1cncc1CCc1cc(F)cc(Oc2ccc(-c3nn(C4CCOCC4)c4ncnc(N)c34)cc2)c1` [Compound 67], the EC50 in assay [1] fell in the range of 100 to 1000 nM. The Ki in assay [2] was less than 100 nM.

Take `Nc1ncnc2c1c(-c1ccc(Oc3cc(F)cc(OCc4cncnc4)c3)cc1)nn2C1CCOCC1` [Compound 68]: the EC50 in assay [1] is less than 100 nM. Moreover, the Ki in assay [2] is less than 100 nM.

With `Nc1ncnc2c1c(-c1ccc(Oc3cc(F)cc(OCc4cnccn4)c3)cc1)nn2C1CCOCC1` [Compound 69], the EC50 in assay [1] was less than 100 nM. Also, in assay [2], the Ki is less than 100 nM.

Take `Cc1ncc(COc2cccc(Oc3ccc(-c4nn(C5CCOCC5)c5ncnc(N)c45)c(F)c3)c2)s1` [Compound 70]: the EC50 in assay [1] was less than 100 nM. In assay [2], the inhibition constant (Ki) was less than 100 nM.

Turning to `Cn1cncc1COc1cc(F)cc(Oc2ccc(-c3nn(C4CCOCC4)c4ncnc(N)c34)cc2F)c1` [Compound 72], the EC50 in assay [1] lay within 100 to 1000 nM. The Ki in assay [2] was less than 100 nM.

As to `Cn1cncc1COc1cc(F)cc(Oc2ccc(-c3nn(C4CCOCC4)c4ncnc(N)c34)c(F)c2)c1` [Compound 73], the EC50 in assay [1] was less than 100 nM. Also, in assay [2], the inhibition constant (Ki) was less than 100 nM.

In the case of `CC(C)Cn1cncc1COc1cc(F)cc(Oc2ccc(-c3nn(C4CCOCC4)c4ncnc(N)c34)cc2)c1` [Compound 74], the EC50 in assay [1] lay within 100 to 1000 nM. For the same compound, the Ki in assay [2] is less than 100 nM.

Take `[2H]C([2H])(Oc1cc(F)cc(Oc2ccc(-c3nn(C4CCOCC4)c4ncnc(N)c34)cc2)c1)c1cncn1C` [Compound 75]: the EC50 in assay [1] is less than 100 nM. Moreover, in assay [2], the inhibitory constant (Ki) was less than 100 nM.

As for `Nc1ncnc2c1c(-c1ccc(Oc3cc(F)cc(OCc4cncn4Cc4ccccc4)c3)cc1)nn2C1CCOCC1` [Compound 76], the EC50 in assay [1] lay in the range of 100 to 1000 nM. The Ki in assay [2] is less than 100 nM.

On to `Nc1ncnc2c1c(-c1ccc(Oc3cc(F)cc(OCc4cncn4C4CCCC4)c3)cc1)nn2C1CCOCC1` [Compound 77], for which, in assay [1], the EC50 is less than 100 nM. Moreover, the inhibition constant (Ki) in assay [2] was less than 100 nM.

For `Nc1ncnc2c1c(-c1ccc(Oc3cc(F)cc(CCc4cccnc4)c3)cc1)nn2C1CCOCC1` [Compound 80], the EC50 in assay [1] fell in the range of 100 to 1000 nM. The Ki in assay [2] was less than 100 nM.

As to `Cc1ncc(COc2cc(F)cc(Oc3ccc(-c4nn(CCO)c5ncnc(N)c45)cc3)c2)s1` [Compound 81], the EC50 in assay [1] is less than 100 nM. For the same compound, the inhibitory constant (Ki) in assay [2] was less than 100 nM.

`COCCn1cncc1COc1cc(F)cc(Oc2ccc(-c3nn(C4CCOCC4)c4ncnc(N)c34)cc2)c1` [Compound 83]: in assay [1], the EC50 lay within 100 to 1000 nM. In addition, the inhibition constant (Ki) in assay [2] was less than 100 nM.

For `Cc1ccc(COc2cc(F)cc(Oc3ccc(-c4nn(C5CCCC5)c5ncnc(N)c45)cc3)c2)cn1` [Compound 84], the EC50 in assay [1] was less than 100 nM. In addition, the inhibitory constant (Ki) in assay [2] is less than 100 nM.

For `Nc1ncnc2c1c(-c1ccc(Oc3cc(F)cc(CCc4ccccn4)c3)cc1)nn2C1CCOCC1` [Compound 86], the EC50 in assay [1] fell in the range of 100 to 1000 nM. In addition, the inhibition constant Ki in assay [2] was less than 100 nM.

Turning to `CCn1cncc1COc1cc(F)cc(Oc2ccc(-c3nn(C4CCOCC4)c4ncnc(N)c34)cc2)c1` [Compound 87], in assay [1], the EC50 is less than 100 nM. In assay [2], the inhibitory constant (Ki) is less than 100 nM.

In the case of `Cc1ccc(COc2cc(F)cc(Oc3ccc(-c4nn(CCO)c5ncnc(N)c45)cc3)c2)cn1` [Compound 88], the EC50 in assay [1] was less than 100 nM. Besides, the inhibitory constant (Ki) in assay [2] is less than 100 nM.

As to `Cc1ccc(COc2cc(F)cc(Oc3ccc(-c4nn(C5CCOCC5)c5ncnc(N)c45)cc3)c2)c[n+]1[O-]` [Compound 91], the EC50 in assay [1] was less than 100 nM. Also, in assay [2], the Ki was less than 100 nM.

On to `Cn1cncc1COc1cc(F)cc(Oc2ccc(-c3nn(C4CCCC4)c4ncnc(N)c34)c(F)c2)c1` [Compound 92], for which the EC50 in assay [1] was less than 100 nM. Besides, the Ki in assay [2] was less than 100 nM.

Regarding `Nc1ncnc2c1c(-c1ccc(Oc3cc(F)cc(OCc4cnc[nH]4)c3)cc1)nn2C1CCOCC1` [Compound 93], in assay [1], the EC50 was 100 to 1000 nM. Besides, in assay [2], the inhibition constant (Ki) is less than 100 nM.

Consider `Cc1ccc(COc2cc(F)cc(Oc3ccc(-c4nn(C5CCOCC5)c5ncnc(N)c45)c(F)c3)c2)cn1` [Compound 95], for which the EC50 in assay [1] is less than 100 nM. Further, in assay [2], the Ki is less than 100 nM.

As for `Cc1ccc(COc2cc(F)cc(Oc3ccc(-c4nn(CCCO)c5ncnc(N)c45)cc3)c2)cn1` [Compound 96], in assay [1], the EC50 was less than 100 nM. For the same compound, in assay [2], the inhibition constant Ki was less than 100 nM.

Take `Nc1ncnc2c1c(-c1ccc(Oc3cc(F)cc(OCc4cncn4CCOCc4ccccc4)c3)cc1)nn2C1CCOCC1` [Compound 97]: the EC50 in assay [1] lay in the range of 100 to 1000 nM. Besides, in assay [2], the Ki is less than 100 nM.

For the compound `CC(C)n1nc(-c2ccc(Oc3cc(F)cc(OCc4cncn4C)c3)cc2F)c2c(N)ncnc21` [Compound 98], the EC50 in assay [1] is less than 100 nM. Moreover, the inhibitory constant (Ki) in assay [2] was less than 100 nM.

For the compound `Nc1ncnc2c1c(-c1ccc(Oc3cc(F)cc(OCc4cncn4CCO)c3)cc1)nn2C1CCOCC1` [Compound 99], the EC50 in assay [1] was 100 to 1000 nM. For the same compound, the inhibition constant (Ki) in assay [2] is less than 100 nM.

As for `Nc1ncnc2c1c(-c1ccc(Oc3cc(F)cc(OCc4ccc(CO)nc4)c3)cc1)nn2C1CCOCC1` [Compound 101], in assay [1], the EC50 was less than 100 nM. For the same compound, the inhibition constant (Ki) in assay [2] was less than 100 nM.

Take `Cc1ncc(COc2cc(F)cc(Oc3ccc(-c4nn(CCCO)c5ncnc(N)c45)cc3)c2)s1` [Compound 104]: in assay [1], the EC50 is less than 100 nM. The inhibition constant Ki in assay [2] is less than 100 nM.

`Cn1cncc1COc1cc(F)cc(Oc2ccc(-c3nn(CCO)c4ncnc(N)c34)c(F)c2)c1` [Compound 105]: the EC50 in assay [1] is 100 to 1000 nM. For the same compound, the Ki in assay [2] is less than 100 nM.

Consider `Cc1ncc(COc2cc(F)cc(Oc3ccc(-c4nn(C(CO)CCl)c5ncnc(N)c45)cc3)c2)s1` (stereo not drawn) [Compound 109], for which, in assay [1], the EC50 was less than 100 nM. The Ki in assay [2] was less than 100 nM.

On to `Cc1ncc(COc2cc(F)cc(Oc3ccc(-c4nn(CCO)c5ncnc(N)c45)cc3)c2)cn1` [Compound 110], for which, in assay [1], the EC50 fell in the range of 100 to 1000 nM. Also, in assay [2], the Ki was less than 100 nM.

Take `Cc1ccc(COc2cc(F)cc(Oc3ccc(-c4nn(CC(C)(C)O)c5ncnc(N)c45)cc3)c2)cn1` [Compound 111]: the EC50 in assay [1] is 100 to 1000 nM. Also, the Ki in assay [2] is less than 100 nM.

In the case of `Cn1cncc1COc1cc(F)cc(Oc2ccc(-c3nn(CC(C)(C)O)c4ncnc(N)c34)cc2)c1` [Compound 112], the EC50 in assay [1] was in the range of 100 to 1000 nM. The inhibitory constant (Ki) in assay [2] was less than 100 nM.
